“And” between values parts separate entries of the source, which are not always exact repeats. Identical values can stand only once.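 Each compound was tested at five concentrations against cells in 96-well plates for 48 hours. GI50: concentration for 50% inhibition of growth. TGI denotes the concentration required for complete inhibition of growth.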
Columns and labels:
Experiment in all cases: NCI anticancer screen, dose series, 48 h
NCI-H460 lung = tested on: NCI-H460 lung
M14 melanoma = tested on: M14 melanoma
DLD-1 colon = tested on: DLD-1 colon
M19-MEL melanoma = tested on: M19-MEL melanoma
DMS 114 small cell lung = tested on: DMS 114 small cell lung
LOX IMVI melanoma = tested on: LOX IMVI melanoma
SW-620 colon = tested on: SW-620 colon
DU-145 prostate = tested on: DU-145 prostate
MDA-MB-231 breast = tested on: MDA-MB-231 breast
KM20L2 colon = tested on: KM20L2 colon

SMILES | GI50 (NCI-H460 lung) | TGI (NCI-H460 lung) | GI50 (M14 melanoma) | TGI (M14 melanoma) | GI50 (DLD-1 colon) | TGI (DLD-1 colon) | GI50 (M19-MEL melanoma) | TGI (M19-MEL melanoma) | GI50 (DMS 114 small cell lung) | TGI (DMS 114 small cell lung) | GI50 (LOX IMVI melanoma) | TGI (LOX IMVI melanoma) | GI50 (SW-620 colon) | TGI (SW-620 colon) | TGI (DU-145 prostate) | GI50 (MDA-MB-231 breast) | TGI (MDA-MB-231 breast) | TGI (KM20L2 colon) | GI50 (DU-145 prostate)
O=C([O-])c1ccccc1Nc1ccccn1.O=C([O-])c1ccccc1Nc1ccccn1.[Ni+2] | > 100 µM | > 100 µM | > 100 µM | > 100 µM | > 100 µM | > 100 µM | > 100 µM | > 100 µM | > 100 µM | > 100 µM | > 100 µM | > 100 µM | > 100 µM | > 100 µM | – | – | – | – | –
COc1cc(C2c3cc4c(cc3[C@@H](Nc3ccc(C#N)cc3)C3COC(=O)[C@H]23)OCO4)cc(OC)c1O (stereo not given in full) | 0.0174 µM and 0.0261 µM | – | – | – | – | 3.51 µM | – | – | – | 4.14 µM | – | 9.52 µM | 0.781 µM and 0.263 µM | 50 µM and 75 µM and 11.4 µM | 1.17 µM and 6.87 µM | 3.34 µM | 25.6 µM and > 100 µM | 75 µM | –
C[N+](C)(C)CC(=O)N/N=C(/Cc1nc2c3c(ccc2[nH]c1=O)C(=O)c1ccccc1C3=O)C(=O)Nc1ccc(Cl)c(Cl)c1 | – | > 100 µM | – | > 100 µM | – | > 100 µM | – | > 100 µM | – | > 100 µM | – | – | – | > 100 µM | – | – | – | > 100 µM | –
CCCc1[nH]nc(CCC(=O)N(Cc2ccccc2)Cc2ccccc2)c1CC | – | > 100 µM | – | > 100 µM | – | > 100 µM | – | > 100 µM | – | > 100 µM | – | > 100 µM | – | > 100 µM | – | – | – | > 100 µM | –
Cc1cccc(NC(=O)CC(=O)N2N=C(N(CCC#N)c3ccc(Cl)cc3)CC2c2ccccc2)c1 (stereo not given) | – | > 100 µM | – | > 100 µM | – | > 100 µM | – | > 100 µM | – | > 100 µM | – | > 100 µM | – | > 100 µM | – | – | – | – | –
Cc1ccc(-c2c(N)[n+]([O-])c3ccccc3[n+]2[O-])cc1 | – | 47 µM | – | 25.3 µM | – | 28.7 µM | – | 24.8 µM | – | – | – | 25.4 µM | – | 23.3 µM | – | – | – | 38.9 µM | –
N#C/C(=C1\OC(=O)C(c2ccc(Br)cc2)=C1O)c1ccc(Br)cc1 | – | 30.4 µM | – | 28.4 µM | – | 34.6 µM | – | 31.1 µM | – | 25.9 µM | – | 30.7 µM | – | 27.3 µM | – | – | – | 31.5 µM | –
CNC(=O)OCc1nc(SC2CCCCO2)n(C)c1COC(=O)NC (stereo not given) | – | > 100 µM | – | > 100 µM | – | > 100 µM | – | > 100 µM | – | > 100 µM | – | > 100 µM | – | > 100 µM | – | – | – | > 100 µM | –
COc1cccc(NC(=O)CC(=O)N2N=C(N(CCC#N)c3ccc(Cl)cc3)CC2c2ccccc2)c1 (stereo not given) | – | > 100 µM | – | > 100 µM | – | > 100 µM | – | > 100 µM | – | > 100 µM | – | > 100 µM | – | > 100 µM | – | – | – | > 100 µM | –
CC(=O)NNc1nc(C)c(C(=O)NNC(=O)C(=O)Nc2ccccc2C#N)s1 | – | > 100 µM | – | > 100 µM | – | > 100 µM | – | > 100 µM | – | > 100 µM | – | > 100 µM | – | > 100 µM | – | – | – | > 100 µM | –
COc1cc2c(cc1OC)C(N(C)C)C(c1ccccc1)=C2Cl (stereo not given) | – | 39.2 µM | – | 34.3 µM | – | 32.3 µM | – | 39.1 µM | – | – | – | 31.9 µM | – | 29.8 µM | – | – | – | 58.6 µM | –
Cc1ccc2c(ccc3c[n+]4c5ccccc5ccc4n32)c1 | 1.2 µM | 5.41 µM | 1.35 µM | 4.68 µM | – | – | – | – | – | – | 1.32 µM | 3.25 µM | 0.508 µM | 10.7 µM | 12.3 µM | 2.7 µM | 11.6 µM | – | 1.32 µM
NC(=S)N/N=C(/CC(=O)c1ccccc1)C(=O)Nc1ccc(Cl)c(Cl)c1 | – | > 100 µM | – | > 100 µM | – | > 100 µM | – | > 100 µM | – | > 100 µM | – | > 100 µM | – | > 100 µM | – | – | – | > 100 µM | –
CC(C)(C)C#CC1=C(Br)C(=O)OC1 | 3.72 µM | 15.1 µM | 3.61 µM | 27 µM | – | – | – | – | – | – | 1.7 µM | > 21.2 µM | – | > 24.9 µM | 3.31 µM | 2.48 µM | 11 µM | – | 1.53 µM
Cc1ccc(C(=O)O/N=C2/CCC/C2=C\c2ccccc2)cc1 | – | > 100 µM | – | > 100 µM | – | > 100 µM | – | > 100 µM | – | > 100 µM | – | > 100 µM | – | > 100 µM | – | – | – | > 100 µM | –
CC1=NOC(=O)/C1=C/c1ccccc1O | – | > 100 µM | – | > 100 µM | – | > 100 µM | – | > 100 µM | – | > 100 µM | – | > 100 µM | – | 73.9 µM | – | – | – | > 100 µM | –
CCN1C(=O)N(CC)C2C1NN=c1s/c(=C\c3cccnc3)c(=O)n12 (stereo not given) | 0.4 µM | > 100 µM | 0.298 µM | > 100 µM | – | – | – | – | – | – | 0.543 µM | > 100 µM | 0.393 µM | > 100 µM | > 48.7 µM | 3.57 µM | > 95.3 µM | – | 0.412 µM
CNC(=O)n1ccc2cc(Oc3ccnc(NC(=O)c4ccc(C5CCN(CCO)CC5)cc4)c3)c(OCCOC)cc21 | 3.22 µM | 10.2 µM | 1.98 µM | 4.24 µM | – | – | – | – | – | – | 1.77 µM | 3.7 µM | 6.3 µM | 18.9 µM | 23.2 µM | 2.46 µM | 6.11 µM | – | 11.2 µM
COc1c(CCC[P+](c2ccccc2)(c2ccccc2)c2ccccc2)cc2c(c1OC)OCO2 | 1.45 µM | 4.56 µM | 2.22 µM | 19.2 µM | – | – | – | – | – | – | 2.4 µM | 10.4 µM | 1.93 µM | 11.1 µM | > 100 µM | 2.14 µM | 10.9 µM | – | 3.56 µM
CCCCOc1ccc(NC(N)=Nc2ccc(Cl)cc2)cc1 | – | 8.91 µM | – | 11.6 µM | – | – | – | – | – | – | – | 15.1 µM | – | 16.1 µM | 13.6 µM | – | 27.2 µM | – | –
Cc1cc(N(CCC#N)S(=O)(=O)c2ccccc2)ccc1/C=C1N=C(/C=C/c2ccccc2)OC\1=O | – | > 100 µM | – | > 100 µM | – | > 100 µM | – | – | – | > 100 µM | – | > 100 µM | – | > 100 µM | – | – | – | > 100 µM | –
C=CCC1([C@H](C)[C@@H](OC(C)=O)c2cc(OC)c(OC)c(OC)c2)C[C@@H](OC)CCC1=O (stereo not given in full) | – | 62.4 µM | – | 30.4 µM | – | 37.5 µM | – | 91.3 µM | – | 44.4 µM | – | – | – | 38.6 µM | – | – | – | 24.6 µM | –
